Experimental data taken from US9205174B2, “Bone graft substitute in the form of an implantable three-dimensional scaffold and method of manufacturing same” (Mathys AG Bettlach, priority 2010, dated 2015).

Columns and labels:
[1] = for expected (added) amount beyond which additional salt does not load the block / loading efficiency drastically decreases: 0.50 g/mL solution, 14×14 mm β-TCP cylinder, dried at 95° C.
Method: A 2^2 factorial design of experiments with three repeats was performed with the following factors: Factor A: CaCl2 concentration (0.25 or 0.50 g/mL); Factor B: Liquid amount (3.5 or 7.0 mL). Each of the 14×14 mm cylinders was placed standing in a snap cap flask.
The solution was then slowly added to allow impregnation through capillarity. The cylinder top was always protruding out of the solution. The samples were then inserted into the drying cupboard tempered at 60° C. The ventilation of the drying cupboard was set at its maximum.
The weight of the flask+solution+samples was measured at regular interval to determine the point at which constant weight was reached. […] Therefore, these 9 samples were removed from the flask and the weight was determined without flask. The 3 samples made with 7 mL 0.50 g/mL solution were kept for a longer time. The drying temperature was increased to 80° C.
Each of the 14×14 mm cylinders was placed standing in a snap cap flask. The solution was then slowly injected at the bottom of the snap-cap flask to allow impregnation through capillarity. 6 different volumes were injected: 1.8, 2.7, 3.6, 4.5, 5.6 and 6.3 mL.
Two cylinders were prepared for each solution volume. The cylinder top was always protruding out of the solution. The samples were then inserted into the drying cupboard tempered at 95° C. The ventilation of the drying cupboard was set at its maximum.
The weight of the flask+solution+samples was measured at regular interval to determine the point at which constant weight was reached. The sample weight was determined to assess how much di-potassium hydrogen phosphate was present in the block pores.
Each of the 14×14 mm cylinders was placed standing in a snap cap flask. The solution (kept at 95° C.) was then slowly injected at the bottom of the snap-cap flask to allow impregnation through capillarity. […]
The weight of the flask+solution+samples was measured at regular interval to determine the point at which constant weight was reached. […] The sample weight was determined to assess how much di-potassium hydrogen phosphate was present in the block pores.

[2] = Release test of loaded β-TCP blocks in 1 L deionized water, weight loss after drying; type: physicochemical; conditions: for dissolution rate DRD relative to dissolution rate DRS of β-TCP: from weight losses; for release rate (in words): from loaded β-TCP blocks in 1 L deionized water; for amount released: 50 RPM
Method: (§1) Each sample was then placed into a small porous cage produced by joining together two BD Falcon filters (Mesh size: 70 micrometers). The cage was lowered into a 1 L deionized water. Stirring was performed with a large magnetic bar (6 cm in length) at 50 RPM. The samples were removed from the solution after 1 h or 3 h (1 sample per time and per composition). The samples were then dried at 95° C. and weighed to determine the amount of Na2HPO4.2H2O released during the test.
as §1, with “after 10 min,” for “after”, “or 6” for “or 3”, “(1 samples” for “(1 sample”, “of CaCl2” for “of Na2HPO4.2H2O”, “the incubation.” for “the test.”

| Structure (SMILES) | expected (added) amount beyond which additional salt does not load the block / loading efficiency drastically decreases [1] | dissolution rate DRD relative to dissolution rate DRS of β-TCP ([2]; deionized water) | release rate (in words) [2] | loading efficiency ([1]; Example 1, porous β-TCP blocks, 7 mL of 0.25 g/mL or 3.5 mL of 0.50 g/mL solution, dried at 60° C.) [%] | amount released ([2]; Example 4, after 1 h, deionized water) | state of samples after release ([2]; Example 4, at 6 h, deionized water) | amount released ([2]; Example 4, within 10 minutes, deionized water) |
| --- | --- | --- | --- | --- | --- | --- | --- |
| O=P([O-])([O-])O.[K+].[K+] [K2HPO4, di-potassium hydrogen phosphate] | ≈ 2.5 g | – | – | – | – | – | – |
| O=P([O-])([O-])O.[Na+].[Na+] [Na2HPO4.2H2O, di-sodium hydrogen phosphate] | ~1.35 g | two order of magnitude larger | relatively slowly | – | – | – | – |
| [Ca+2].[Cl-].[Cl-] [calcium chloride] | – | more than 100 times | very fast | ~84 | 80-85% | free of calcium chloride | roughly 50% |
